Several values for one entry are separate records, joined by “and”; a condition that tells them apart may be missing. Equal entries are not always repeated.
Assays:
Assay type in all cases: physicochemical
[1] = Loading time by soaking commercial contact lenses in 3 ml contact cases; details: most of buffer system
Protocol: The loading time for most of buffer system is about 12-24 hours by soaking commercial contact lenses inside the 3 ml contact cases with a certain concentration of domaphen bromide solution.

[2] = Uptake of domaphen bromide by lens in tris(hydroxymethyl)aminomethane buffer system
Protocol: Three solutions made according to the formulation of Example 1 were made with a 25 ppm (Solution 4), 50 ppm (Solution 5) and 100 ppm (Solution 6) domaphen bromide concentrations, except the borate buffer system was replaced with an equivalent amount of a tris(hydroxymethyl)aminomethane buffer system and the water amount was adjusted accordingly. The term “equivalent amount” means the amount required to adjust the pH to the desired pH as another buffer. Two 3 ml portions of Solutions 4-6 in solution were placed in six separate vials. A total of six Sureview™ lens (Johnson & Johnson, New Brunswick, N.J.) were placed in the vials—one lens per each vial. The vials remained in the lens for a first 24 hour soaking cycle. After 24 hours, the lenses were removed. The amount of domaphen bromide remaining in each of the 3 ml solutions is measured by ultraviolet visible (UV/VIS) spectrometer analytical method. Inhibition % is calculated to reflect the amount of domaphen bromide that remains in the solution expressed as a percentage of the total amount of domaphen bromide. Inhibition % is recorded in Table 3 corresponding to a soaking time of 24 hours. This completed first test cycle. The lenses removed during the first soaking cycle were placed in six fresh vials containing two 3 ml portions of solutions 4-6 to commence the second 24 hour soaking cycle. Care was taken to make sure that the solution the lens is soaked in during the second cycle is identical to the solution in the first cycle. Thus, each pair of lenses is soaked in identical concentrations of Solutions 4-6. After 24 hours, the lenses are removed. The solutions are tested to determine the concentration domaphen bromide in solution. The inhibition % is calculated and recorded in Table 3 corresponding to 48 hour soak time. The lenses were again soaked for a third and fourth soak cycle. The domaphen bromide inhibition % was recorded after the third and fourth soak-cycle and recorded in Table 3 corresponding to the 72 hour and 96 hour soak times, respectively.

[3] = Uptake of domaphen bromide by lens in borate buffer system; details: for Inhibition % in 25 ppm Domiphen Bromide / Inhibition % in 50 ppm Domiphen Bromide / Inhibition % in 100 ppm Domiphen Bromide: Borate buffer, % remaining in solution; for Inhibition % in 25 ppm Domiphen Bromide: 25 ppm (Solution 13); for Inhibition % in 50 ppm Domiphen Bromide: 50 ppm (Solution 14); for Inhibition % in 100 ppm Domiphen Bromide: 100 ppm (Solution 15)
Protocol: Three solutions made according to the formulation of Example 1 were made with a 25 ppm (Solution 13), 50 ppm (Solution 14) and 100 ppm (Solution 15) domaphen bromide concentrations. Two 3 ml portions of Solutions 13-15 in solution were placed in six separate vials. A total of six Sureview™ lens (Johnson & Johnson, New Brunswick, N.J.) were placed in the vials—one lens per each vial. The vials remained in the lens for a first 24 hour soaking cycle. After 24 hours, the lenses were removed. The amount of domaphen bromide remaining in each of the 3 ml solutions is measured by ultraviolet visible (UV/VIS) spectrometer analytical method. Inhibition % is calculated to reflect the amount of domaphen bromide that remains in the solution expressed as a percentage of the total amount of domaphen bromide. Inhibition % is recorded in Table 6 corresponding to a soaking time of 24 hours. This completed the first test cycle. The lenses removed during the first soaking cycle were placed in six fresh vials containing two 3 ml portions of Solutions 13-15 to commence the second 24 hour soaking cycle. Care was taken to make sure that the solution the lens is soaked in during the second cycle is identical to the solution in the first cycle. Thus, each pair of lenses is soaked in concentrations of Solutions 13-15 identical to the concentration that the lens was soaked in during the first soak cycle. After 24 hours, the lenses are removed. The solutions are tested to determine the concentration domaphen bromide in solution. The inhibition % is calculated and recorded in Table 6 corresponding to 48 hour soak time. The lenses were again soaked for a third and fourth soak cycle. The domaphen bromide inhibition % was recorded after the third and fourth soak cycle and recorded in Table 6 corresponding to the 72 hour and 96 hour soak times, respectively.

[4] = Uptake of domaphen bromide by lens in citrate buffer system
Protocol: Three solutions made according to the formulation of Example 1 were made with a 25 ppm (Solution 10), 50 ppm (Solution 11) and 100 ppm (Solution 12) domaphen bromide concentrations, except the borate buffer system was replaced with an equivalent amount of a citrate buffer system and the water amount was adjusted accordingly. Two 3 ml portions of Solutions 10-12 in solution were placed in six separate vials. A total of six Sureview™ lens (Johnson & Johnson, New Brunswick, N.J.) were placed in the vials—one lens per each vial. The vials remained in the lens for a first 24 hour soaking cycle. After 24 hours, the lenses were removed. The amount of domaphen bromide remaining in each of the 3 ml solutions is measured by ultraviolet visible (UV/VIS) spectrometer analytical method. Inhibition % is calculated to reflect the amount of domaphen bromide that remains in the solution expressed as a percentage of the total amount of domaphen bromide. Inhibition % is recorded in Table 5 corresponding to a soaking time of 24 hours. This completed the first test cycle. The lenses removed during the first soaking cycle were placed in six fresh vials containing two 3 ml portions of solutions 10-12 to commence the second 24 hour soaking cycle. Care was taken to make sure that the solution the lens is soaked in during the second cycle is identical to the solution in the first cycle. Thus, each pair of lenses is soaked in concentrations of Solutions 10-12 identical to the concentration that the lens was soaked in during the first soak cycle. After 24 hours, the lenses are removed. The solutions are tested to determine the concentration domaphen bromide in solution. The inhibition % is calculated and recorded in Table 5 corresponding to 48 hour soak time. The lenses were again soaked for a third and fourth soak cycle. The domaphen bromide inhibition % was recorded after the third and fourth soak cycle and recorded in Table 5 corresponding to the 72 hour and 96 hour soak times, respectively.

[5] = Uptake of domaphen bromide by lens in phosphate buffer system; details: % remaining in solution; for Inhibition % in 25 ppm Domiphen Bromide: 25 ppm (Solution 7); for Inhibition % in 50 ppm Domiphen Bromide: 50 ppm (Solution 8); for Inhibition % in 100 ppm Domiphen Bromide: 100 ppm (Solution 9)
Protocol: Three solutions made according to the formulation of Example 1 were made with a 25 ppm (Solution 7), 50 ppm (Solution 8) and 100 ppm (Solution 9) domaphen bromide concentrations, except the borate buffer system was replaced with an equivalent amount of a phosphate buffer system and the amount of water was adjusted accordingly. Two 3 ml portions of Solutions 7-9 in solution were placed in six separate vials. A total of six Sureview™ lens (Johnson & Johnson, New Brunswick, N.J.) were placed in the vials—one lens per each vial. The vials remained in the lens for a first 24 hour soaking cycle. After 24 hours, the lenses were removed. The amount of domaphen bromide remaining in each of the 3 ml solutions is measured by ultraviolet visible (UV/VIS) spectrometer analytical method. Inhibition % is calculated to reflect the amount of domaphen bromide that remains in the solution expressed as a percentage of the total amount of domaphen bromide. Inhibition % is recorded in Table 4 corresponding to a soaking time of 24 hours. This completed the first test cycle. The lenses removed during the first soaking cycle were placed in six fresh vials containing two 3 ml portions of solutions 7-9 to commence the second 24 hour soaking cycle. Care was taken to make sure that the solution the lens is soaked in during the second cycle is identical to the solution in the first cycle. Thus, each pair of lenses is soaked in concentrations of Solutions 7-9 identical to the concentration that the lens was soaked in during the first soak cycle. After 24 hours, the lenses are removed. The solutions are tested to determine the concentration domaphen bromide in solution. The inhibition % is calculated and recorded in Table 4 corresponding to 48 hour soak time. The lenses were again soaked for a third and fourth soak cycle. The domaphen bromide inhibition % was recorded after the third and fourth soak-cycle and recorded in Table 4 corresponding to the 72 hour and 96 hour soak times, respectively.

- loading time [1]: 12 to 24 h
- Domiphen bromide remaining in solution (% of total) ([2]; 25 ppm (Solution 4), soaking time 24 hours): 78.59% and 75.76%
- Domiphen bromide remaining in solution (% of total) ([2]; 25 ppm (Solution 4), soaking time 48 hours): 57.91% and 62.72%
- Domiphen bromide remaining in solution (% of total) ([2]; 25 ppm (Solution 4), soaking time 72 hours): 59.19% and 53.50%
- Domiphen bromide remaining in solution (% of total) ([2]; 25 ppm (Solution 4), soaking time 96 hours): 55.13% and 52.65%
- Domiphen bromide remaining in solution (% of total) ([2]; 50 ppm (Solution 5), soaking time 24 hours): 73.59% and 67.65%
- Domiphen bromide remaining in solution (% of total) ([2]; 50 ppm (Solution 5), soaking time 48 hours): 68.18% and 66.35%
- Domiphen bromide remaining in solution (% of total) ([2]; 50 ppm (Solution 5), soaking time 72 hours): 58.25% and 56.17%
- Domiphen bromide remaining in solution (% of total) ([2]; 50 ppm (Solution 5), soaking time 96 hours): 80.84% and 81.31%
- Domiphen bromide remaining in solution (% of total) ([2]; 100 ppm (Solution 6), soaking time 24 hours): 68.39% and 63.58%
- Domiphen bromide remaining in solution (% of total) ([2]; 100 ppm (Solution 6), soaking time 48 hours): 65.50% and 63.71%
- Domiphen bromide remaining in solution (% of total) ([2]; 100 ppm (Solution 6), soaking time 72 hours): 56.54% and 58.19%
- Domiphen bromide remaining in solution (% of total) ([2]; 100 ppm (Solution 6), soaking time 96 hours): 53.91% and 59.25%
- Inhibition % in 25 ppm Domiphen Bromide ([3]; soaking time 24 hours): 21.85%
- Inhibition % in 25 ppm Domiphen Bromide ([3]; soaking time 48 hours): 36.68% and 35.57%
- Inhibition % in 25 ppm Domiphen Bromide ([3]; soaking time 72 hours): 33.41% and 33.18%
- Inhibition % in 25 ppm Domiphen Bromide ([3]; soaking time 96 hours): 31.54% and 39.03%
- Inhibition % in 50 ppm Domiphen Bromide ([3]; soaking time 24 hours): 29.80% and 29.88%
- Inhibition % in 50 ppm Domiphen Bromide ([3]; soaking time 48 hours): 36.31% and 32.62%
- Inhibition % in 50 ppm Domiphen Bromide ([3]; soaking time 72 hours): 31.35% and 37.25%
- Inhibition % in 50 ppm Domiphen Bromide ([3]; soaking time 96 hours): 28.30% and 37.79%
- Inhibition % in 100 ppm Domiphen Bromide ([3]; soaking time 24 hours): 14.68% and 17.15%
- Inhibition % in 100 ppm Domiphen Bromide ([3]; soaking time 48 hours): 19.08% and 15.10%
- Inhibition % in 100 ppm Domiphen Bromide ([3]; soaking time 72 hours): 12.02% and 18.58%
- Inhibition % in 100 ppm Domiphen Bromide ([3]; soaking time 96 hours): 14.11% and 20.21%
- loading percentage (100% minus Inhibition%) ([3]; borate buffer, as high as): 70-80%
- Domiphen bromide remaining in solution (%) ([4]; 25 ppm (Solution 10), soaking time 24 hours): 63.20% and 75.66%
- Domiphen bromide remaining in solution (%) ([4]; 25 ppm (Solution 10), soaking time 48 hours): 71.57% and 73.25%
- Domiphen bromide remaining in solution (%) ([4]; 25 ppm (Solution 10), soaking time 72 hours): 64.34% and 76.59%
- Domiphen bromide remaining in solution (%) ([4]; 25 ppm (Solution 10), soaking time 96 hours): 59.17% and 64.89%
- Domiphen bromide remaining in solution (%) ([4]; 50 ppm (Solution 11), soaking time 24 hours): 76.51% and 80.02%
- Domiphen bromide remaining in solution (%) ([4]; 50 ppm (Solution 11), soaking time 48 hours): 78.39% and 72.39%
- Domiphen bromide remaining in solution (%) ([4]; 50 ppm (Solution 11), soaking time 72 hours): 67.91% and 77.42%
- Domiphen bromide remaining in solution (%) ([4]; 50 ppm (Solution 11), soaking time 96 hours): 59.28% and 69.87%
- Domiphen bromide remaining in solution (%) ([4]; 100 ppm (Solution 12), soaking time 24 hours): 75.59% and 77.95%
- Domiphen bromide remaining in solution (%) ([4]; 100 ppm (Solution 12), soaking time 48 hours): 79.63% and 70.90%
- Domiphen bromide remaining in solution (%) ([4]; 100 ppm (Solution 12), soaking time 72 hours): 71.04% and 81.39%
- Domiphen bromide remaining in solution (%) ([4]; 100 ppm (Solution 12), soaking time 96 hours): 62.97% and 74.47%
- Inhibition % in 25 ppm Domiphen Bromide ([5]; soaking time 24 hours): 43.92% and 51.40%
- Inhibition % in 25 ppm Domiphen Bromide ([5]; soaking time 48 hours): 50.19% and 51.75%
- Inhibition % in 25 ppm Domiphen Bromide ([5]; soaking time 72 hours): 52.34% and 47.54%
- Inhibition % in 25 ppm Domiphen Bromide ([5]; soaking time 96 hours): 41.31% and 34.37%
- Inhibition % in 50 ppm Domiphen Bromide ([5]; soaking time 24 hours): 47.12% and 49.78%
- Inhibition % in 50 ppm Domiphen Bromide ([5]; soaking time 48 hours): 49.51% and 49.86%
- Inhibition % in 50 ppm Domiphen Bromide ([5]; soaking time 72 hours): 46.67% and 48.35%
- Inhibition % in 50 ppm Domiphen Bromide ([5]; soaking time 96 hours): 34.47% and 37.30%
- Inhibition % in 100 ppm Domiphen Bromide ([5]; soaking time 24 hours): 48.87% and 47.95%
- Inhibition % in 100 ppm Domiphen Bromide ([5]; soaking time 48 hours): 46.77% and 47.52%
- Inhibition % in 100 ppm Domiphen Bromide ([5]; soaking time 72 hours): 43.55% and 45.54%
- Inhibition % in 100 ppm Domiphen Bromide ([5]; soaking time 96 hours): 34.67% and 37.15%
Compound: CCCCCCCCCCCC[N+](C)(C)CCOc1ccccc1 [Domiphen Bromide]

From US20060067981A1, “Contact lens with improved biocidal activity and related methods and materials” (Bausch & Lomb Incorporated, priority 2004, published 2006)
